These results are taken from patent publication US20080057044A1, “Lactobacillus Plantarum with Body-Fat Reducing Activity and the Foods Containing Them” (priority 2004, published 2008).

For the first assay, the system named is overweight people.
Assay: not given
The conditions noted are these: 180 overweight people, one year; cited from earlier work.
Turning to conjugated linoleic acid [CLA], the weight loss is 4-10%.

In a further assay the test system is Lactobacillus plantarum Strain PL62. Nature of the assay: Antibiotic resistance (diameter of growth inhibition).
Conditions: not given
Format: cell-based. An excerpt: The stronger antibiotic resistance a probiotic has, the higher survivability within the intestines is. Thus, the stronger an antibiotic resistance is, the better it is. However, if an antibiotic resistance is transferred, resistance problems may be brought about. It was confirmed whether an antibiotic resistance was transferred to other bacteria or not.
For `CO[C@H]1/C=C/O[C@@]2(C)Oc3c(C)c(O)c4c(O)c(c(/C=N/N5CCN(C)CC5)c(O)c4c3C2=O)NC(=O)/C(C)=C\C=C\[C@H](C)[C@H](O)[C@@H](C)[C@@H](O)[C@@H](C)[C@H](OC(C)=O)[C@@H]1C` [Rifampin], the “Diameter (mm) of growth inhibition” value was found to be 24 mm.
Same read-out and setting: the same measure for `CC1(C)S[C@@H]2[C@H](NC(=O)C(C(=O)O)c3ccccc3)C(=O)N2[C@H]1C(=O)O` (some centres unmarked) [Carbenicillin]: 29 mm.
In the case of Trimethpprime/sulfamethoxasole, the “Diameter (mm) of growth inhibition” value was 28 mm.
Take `CC[C@H]1OC(=O)[C@H](C)[C@@H](O[C@H]2C[C@@](C)(OC)[C@@H](O)[C@H](C)O2)[C@H](C)[C@@H](O[C@@H]2O[C@H](C)C[C@H](N(C)C)[C@H]2O)[C@](C)(O)C[C@@H](C)C(=O)[C@H](C)[C@@H](O)[C@]1(C)O` [Erythromycin]: the “Diameter (mm) of growth inhibition” value is given as 32 mm.
Still for that read-out and setting: next, `CCN1CCN(C(=O)N[C@@H](C(=O)N[C@@H]2C(=O)N3[C@@H]2SC(C)(C)[C@@H]3C(=O)O)c2ccccc2)C(=O)C1=O` [Piperacilin]: 37 mm; `CC1(C)S[C@@H]2[C@H](NC(=O)[C@H](N)c3ccccc3)C(=O)N2[C@H]1C(=O)O` [Ampicillin]: 34 mm.
Take `CC(=O)OCC1=C(C(=O)O)N2C(=O)[C@@H](NC(=O)Cc3cccs3)[C@H]2SC1` [Cephalothin]: the “Diameter (mm) of growth inhibition” value is 25 mm.
As to `Cc1onc(-c2ccccc2)c1C(=O)N[C@@H]1C(=O)N2[C@@H]1SC(C)(C)[C@@H]2C(=O)O` [Oxacillin], the “Diameter (mm) of growth inhibition” value is 11 mm.
With `[H]/N=C(/N)N[C@H]1[C@H](O)[C@@H](O)[C@H](O[C@@H]2O[C@@H](C)[C@](O)(C=O)[C@H]2O[C@@H]2O[C@@H](CO)[C@H](O)[C@@H](O)[C@@H]2NC)[C@@H](N/C(N)=N\[H])[C@@H]1O` [Streptomycin], the “Diameter (mm) of growth inhibition” value amounted to 8 mm.
Turning to `CN[C@H](CC(C)C)C(=O)N[C@H]1C(=O)N[C@@H](CC(N)=O)C(=O)N[C@H]2C(=O)N[C@H]3C(=O)N[C@H](C(=O)N[C@H](C(=O)O)c4cc(O)cc(O)c4-c4cc3ccc4O)[C@H](O)c3ccc(c(Cl)c3)Oc3cc2cc(c3O[C@@H]2O[C@H](CO)[C@@H](O)[C@H](O)[C@H]2O[C@H]2C[C@](C)(N)[C@H](O)[C@H](C)O2)Oc2ccc(cc2Cl)[C@H]1O` [Vancomycin], the “Diameter (mm) of growth inhibition” value was determined as 6 mm.
In the case of Penicillin, the “Diameter (mm) of growth inhibition” value is recorded as 29 mm.
For `CN(C)[C@@H]1C(O)=C(C(N)=O)C(=O)[C@@]2(O)C(O)=C3C(=O)c4c(O)cccc4[C@@](C)(O)[C@H]3C[C@@H]12` [Tetracycline], the “Diameter (mm) of growth inhibition” value stood at 24 mm.
Take `CCC[C@@H]1C[C@@H](C(=O)N[C@@H]([C@H]2O[C@H](SC)[C@H](O)[C@@H](O)[C@H]2O)[C@H](C)Cl)N(C)C1` [Clindamycin]: the “Diameter (mm) of growth inhibition” value is recorded as 20 mm.
In the case of `O=C(N[C@H](CO)[C@H](O)c1ccc([N+](=O)[O-])cc1)C(Cl)Cl` [Chloramphenicol], the “Diameter (mm) of growth inhibition” value was found to be 30 mm.
Turning to `CCN1CCN(C(=O)N[C@@H](C(=O)N[C@@H]2C(=O)N3C(C(=O)O)=C(CSc4nnnn4C)CS[C@H]23)c2ccc(O)cc2)C(=O)C1=O` [Cefoperazone], the “Diameter (mm) of growth inhibition” value came out at 22 mm.
On to Gentamicin, for which the “Diameter (mm) of growth inhibition” value is 12 mm.
